# Experimental data published in patent publication US20240327364A1, “THERAPEUTIC TARGETING OF GPR68 TO INDUCE FERROPTOSIS” (University Of Maryland, Baltimore, priority 2023, published 2024).
# Where two headings read alike, the source gives them in different places.
# Tests used:
# [1] = biological target: T1, ABL1(Q252H)-phosphorylated (Homo sapiens, UniProt P00519, Q252H); experiment: KinomeScan; type: binding; conditions: read-out: % Control
# T1 construct: purchased DiscoveRx
# [2] = biological target: T2, ABL1(T315I)-phosphorylated (Homo sapiens, UniProt P00519, T315I); experiment: KinomeScan; type: binding; conditions: read-out: % Control
# T2 construct: purchased DiscoveRx
# [3] = biological target: T3, ASK2 (Homo sapiens, UniProt O95382); experiment: KinomeScan; type: binding; conditions: read-out: % Control
# T3 construct: purchased DiscoveRx (Fremont, CA)
# [4] = biological target: T4, AXL (Homo sapiens, UniProt P30530); experiment: KinomeScan; type: binding; conditions: read-out: % Control
# T4 construct: purchased DiscoveRx (Fremont, CA)
# T4 sequence (P30530 26-894): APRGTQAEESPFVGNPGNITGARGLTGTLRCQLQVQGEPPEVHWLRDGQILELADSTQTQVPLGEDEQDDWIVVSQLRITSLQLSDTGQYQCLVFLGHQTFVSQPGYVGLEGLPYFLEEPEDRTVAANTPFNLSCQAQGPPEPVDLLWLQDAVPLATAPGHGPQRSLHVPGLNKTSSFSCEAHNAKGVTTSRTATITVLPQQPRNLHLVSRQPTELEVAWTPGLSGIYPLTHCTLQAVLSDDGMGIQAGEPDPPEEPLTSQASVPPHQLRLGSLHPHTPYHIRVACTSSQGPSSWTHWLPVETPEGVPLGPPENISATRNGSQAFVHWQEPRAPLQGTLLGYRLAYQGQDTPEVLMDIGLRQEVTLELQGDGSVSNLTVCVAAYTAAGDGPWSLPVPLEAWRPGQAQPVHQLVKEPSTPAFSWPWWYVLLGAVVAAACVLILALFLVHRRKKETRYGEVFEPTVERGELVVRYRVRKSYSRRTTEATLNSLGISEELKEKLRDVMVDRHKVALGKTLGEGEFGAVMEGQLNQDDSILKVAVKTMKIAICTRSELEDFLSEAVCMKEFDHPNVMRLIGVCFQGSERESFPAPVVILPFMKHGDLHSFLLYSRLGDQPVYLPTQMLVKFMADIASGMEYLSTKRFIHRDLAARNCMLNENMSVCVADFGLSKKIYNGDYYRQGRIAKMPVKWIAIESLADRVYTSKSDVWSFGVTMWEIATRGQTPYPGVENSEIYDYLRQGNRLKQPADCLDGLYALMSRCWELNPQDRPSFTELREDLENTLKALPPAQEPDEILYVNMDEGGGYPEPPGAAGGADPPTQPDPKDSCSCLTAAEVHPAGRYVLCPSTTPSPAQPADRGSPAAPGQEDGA
# [5] = biological target: T5, BMPR1A (Homo sapiens, UniProt P36894); experiment: KinomeScan; type: binding; conditions: read-out: % Control
# T5 construct: purchased DiscoveRx (Fremont, CA)
# [6] = biological target: T6, BRSK1 (Homo sapiens, UniProt Q8TDC3); experiment: KinomeScan; type: binding; conditions: read-out: % Control
# T6 construct: purchased DiscoveRx (KinomeScan service)
# [7] = biological target: CDKL1 (Homo sapiens, UniProt Q00532); experiment: KinomeScan; type: binding; conditions: read-out: % Control
# Chain of CDKL1 (Q00532 whole entry): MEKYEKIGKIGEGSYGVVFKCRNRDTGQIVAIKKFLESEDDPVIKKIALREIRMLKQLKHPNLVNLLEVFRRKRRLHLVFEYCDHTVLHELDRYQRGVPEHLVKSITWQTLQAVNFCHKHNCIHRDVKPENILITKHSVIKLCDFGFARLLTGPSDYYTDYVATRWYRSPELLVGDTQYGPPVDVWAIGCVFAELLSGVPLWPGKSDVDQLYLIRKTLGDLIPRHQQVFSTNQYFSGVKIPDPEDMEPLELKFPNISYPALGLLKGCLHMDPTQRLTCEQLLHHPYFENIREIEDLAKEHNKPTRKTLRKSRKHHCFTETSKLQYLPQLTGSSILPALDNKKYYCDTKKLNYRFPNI
# [8] = biological target: T7, DRAK2 (Homo sapiens, UniProt O94768); experiment: KinomeScan; type: binding; conditions: read-out: % Control
# T7 construct: purchased DiscoveRx (Fremont, CA), KinomeScan service
# T7 sequence (O94768 whole entry): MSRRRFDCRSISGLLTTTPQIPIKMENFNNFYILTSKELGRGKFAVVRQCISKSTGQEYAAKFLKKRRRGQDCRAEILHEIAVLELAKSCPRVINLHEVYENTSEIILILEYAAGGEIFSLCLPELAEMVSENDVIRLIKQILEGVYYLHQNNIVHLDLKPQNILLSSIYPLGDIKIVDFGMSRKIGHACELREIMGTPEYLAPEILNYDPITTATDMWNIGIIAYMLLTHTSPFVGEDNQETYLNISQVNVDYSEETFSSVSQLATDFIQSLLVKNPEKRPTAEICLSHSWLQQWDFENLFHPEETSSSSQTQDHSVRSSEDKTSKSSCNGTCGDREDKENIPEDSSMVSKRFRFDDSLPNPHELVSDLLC
# [9] = biological target: T8, FYN (Homo sapiens, UniProt P06241); experiment: KinomeScan; type: binding; conditions: read-out: % Control
# T8 construct: purchased DiscoveRx (Fremont, CA)
# [10] = biological target: T9, JNK3 (Homo sapiens, UniProt P53779); experiment: KinomeScan; type: binding; conditions: read-out: % Control
# T9 construct: purchased DiscoveRx
# [11] = biological target: T10, LATS1 (Homo sapiens, UniProt O95835); experiment: KinomeScan; type: binding; conditions: read-out: % Control
# T10 construct: purchased DiscoveRx
# [12] = biological target: T11, LKB1 (Homo sapiens, UniProt Q15831); experiment: KinomeScan; type: binding; conditions: read-out: % Control
# T11 construct: purchased DiscoveRx
# [13] = biological target: T12, MAP3K15 (Homo sapiens, UniProt Q6ZN16); experiment: KinomeScan; type: binding; conditions: read-out: % Control
# T12 construct: purchased DiscoveRx (Fremont, CA)
# [14] = biological target: T13, MET(Y1235D) (Homo sapiens, UniProt P08581, Y1235D); experiment: KinomeScan; type: binding; conditions: read-out: % Control
# T13 construct: purchased DiscoveRx
# [15] = biological target: T14, PIK3CA (Homo sapiens, UniProt P42336); experiment: KinomeScan; type: binding; conditions: read-out: % Control
# T14 construct: purchased DiscoveRx (Fremont, CA)
# [16] = biological target: T15, PLK1 (Homo sapiens, UniProt P53350); experiment: KinomeScan; type: binding; conditions: read-out: % Control
# T15 construct: purchased DiscoveRx (Fremont, CA)
# [17] = biological target: T16, PRKG2 (Homo sapiens, UniProt Q13237); experiment: KinomeScan; type: binding; conditions: read-out: % Control
# T16 construct: purchased DiscoveRx (Fremont, CA)
# [18] = biological target: T17, ADRB2 (Homo sapiens, UniProt P07550); experiment: GPCR Profiler; type: cell-based
# T17 construct: host or cells: Chem-1 cells with promiscuous Gα15
# T17 sequence (P07550 whole entry, species assumed): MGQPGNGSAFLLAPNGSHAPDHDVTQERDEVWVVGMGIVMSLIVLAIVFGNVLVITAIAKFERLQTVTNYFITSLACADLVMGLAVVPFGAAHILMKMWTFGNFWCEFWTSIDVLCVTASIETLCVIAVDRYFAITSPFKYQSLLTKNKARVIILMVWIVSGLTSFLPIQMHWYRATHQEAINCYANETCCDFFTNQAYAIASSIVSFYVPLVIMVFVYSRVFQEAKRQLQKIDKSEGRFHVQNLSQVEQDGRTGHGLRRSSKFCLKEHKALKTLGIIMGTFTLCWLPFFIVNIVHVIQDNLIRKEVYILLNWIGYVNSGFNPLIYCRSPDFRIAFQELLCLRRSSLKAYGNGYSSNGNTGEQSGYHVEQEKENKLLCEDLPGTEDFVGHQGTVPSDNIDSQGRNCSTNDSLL
# [19] = biological target: T18, GABAB1b (Homo sapiens, UniProt Q9UBS5); experiment: GPCR Profiler; type: cell-based
# T18 construct: host or cells: Chem-1 cells expressing Gα15
# T18 sequence (Q9UBS5 1-844 isoform Q9UBS5-2): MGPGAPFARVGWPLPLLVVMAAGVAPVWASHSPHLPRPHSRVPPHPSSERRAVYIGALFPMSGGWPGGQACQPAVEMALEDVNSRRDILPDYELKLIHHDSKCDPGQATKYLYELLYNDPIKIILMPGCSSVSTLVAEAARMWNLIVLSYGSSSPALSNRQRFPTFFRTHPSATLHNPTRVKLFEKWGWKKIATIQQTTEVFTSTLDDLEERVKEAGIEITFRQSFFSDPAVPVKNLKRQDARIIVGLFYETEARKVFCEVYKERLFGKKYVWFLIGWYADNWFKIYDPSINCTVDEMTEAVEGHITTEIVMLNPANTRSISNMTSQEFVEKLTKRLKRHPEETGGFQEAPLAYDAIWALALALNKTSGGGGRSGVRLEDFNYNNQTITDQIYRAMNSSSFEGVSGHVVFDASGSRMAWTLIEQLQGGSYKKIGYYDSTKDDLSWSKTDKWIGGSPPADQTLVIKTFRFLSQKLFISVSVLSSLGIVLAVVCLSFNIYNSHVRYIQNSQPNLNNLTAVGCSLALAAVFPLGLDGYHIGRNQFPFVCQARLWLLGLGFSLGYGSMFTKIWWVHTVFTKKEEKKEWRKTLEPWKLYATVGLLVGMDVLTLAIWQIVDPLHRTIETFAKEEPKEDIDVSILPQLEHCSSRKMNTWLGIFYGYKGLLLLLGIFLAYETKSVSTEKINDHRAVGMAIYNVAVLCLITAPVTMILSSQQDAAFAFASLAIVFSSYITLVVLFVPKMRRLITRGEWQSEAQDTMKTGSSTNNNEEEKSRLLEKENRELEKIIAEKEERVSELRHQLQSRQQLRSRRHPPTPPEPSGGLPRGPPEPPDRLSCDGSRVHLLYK
# T18 sequence (O75899 42-941 partner): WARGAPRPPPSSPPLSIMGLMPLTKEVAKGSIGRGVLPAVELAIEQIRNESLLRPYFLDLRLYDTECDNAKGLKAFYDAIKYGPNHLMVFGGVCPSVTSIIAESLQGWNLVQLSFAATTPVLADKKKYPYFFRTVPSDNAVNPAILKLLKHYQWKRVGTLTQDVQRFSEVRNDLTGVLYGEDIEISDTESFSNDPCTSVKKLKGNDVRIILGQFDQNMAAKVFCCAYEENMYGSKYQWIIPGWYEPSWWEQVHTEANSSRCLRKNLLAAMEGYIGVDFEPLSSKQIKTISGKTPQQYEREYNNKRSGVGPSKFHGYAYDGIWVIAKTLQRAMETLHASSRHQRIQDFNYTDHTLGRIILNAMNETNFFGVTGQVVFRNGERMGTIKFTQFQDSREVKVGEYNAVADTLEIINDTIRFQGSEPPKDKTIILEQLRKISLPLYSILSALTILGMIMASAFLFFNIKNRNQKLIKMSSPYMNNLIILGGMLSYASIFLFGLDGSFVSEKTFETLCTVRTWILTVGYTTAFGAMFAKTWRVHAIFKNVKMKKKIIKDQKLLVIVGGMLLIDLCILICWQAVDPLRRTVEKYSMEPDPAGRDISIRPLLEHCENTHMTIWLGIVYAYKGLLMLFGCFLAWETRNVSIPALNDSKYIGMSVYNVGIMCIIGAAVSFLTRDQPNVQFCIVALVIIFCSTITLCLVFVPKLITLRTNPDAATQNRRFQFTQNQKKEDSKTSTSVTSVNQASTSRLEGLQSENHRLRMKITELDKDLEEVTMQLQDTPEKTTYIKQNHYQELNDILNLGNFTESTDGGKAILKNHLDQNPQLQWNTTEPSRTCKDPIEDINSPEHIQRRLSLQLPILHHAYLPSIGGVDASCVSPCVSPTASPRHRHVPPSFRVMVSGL
# [20] = biological target: T19, GAL2 (Homo sapiens, UniProt O43603); experiment: GPCR Profiler; type: cell-based
# T19 construct: host or cells: Chem-1 cells expressing Gα15
# T19 sequence (O43603 whole entry): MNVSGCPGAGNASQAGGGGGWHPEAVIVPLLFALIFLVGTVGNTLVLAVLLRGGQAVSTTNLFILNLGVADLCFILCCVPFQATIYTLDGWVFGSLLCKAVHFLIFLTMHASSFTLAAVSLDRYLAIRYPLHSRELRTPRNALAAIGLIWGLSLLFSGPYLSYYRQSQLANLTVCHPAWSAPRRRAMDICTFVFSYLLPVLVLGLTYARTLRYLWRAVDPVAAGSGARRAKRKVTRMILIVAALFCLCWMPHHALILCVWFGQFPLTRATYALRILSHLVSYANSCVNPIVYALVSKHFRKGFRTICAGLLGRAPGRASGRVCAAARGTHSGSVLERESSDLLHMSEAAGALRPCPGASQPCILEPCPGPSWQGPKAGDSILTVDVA
# [21] = biological target: T20, S1P4 (Homo sapiens, UniProt O95977); experiment: GPCR Profiler; type: cell-based
# T20 construct: host or cells: Chem-1 cells with Gα15
# T20 sequence (O95977 whole entry, species assumed): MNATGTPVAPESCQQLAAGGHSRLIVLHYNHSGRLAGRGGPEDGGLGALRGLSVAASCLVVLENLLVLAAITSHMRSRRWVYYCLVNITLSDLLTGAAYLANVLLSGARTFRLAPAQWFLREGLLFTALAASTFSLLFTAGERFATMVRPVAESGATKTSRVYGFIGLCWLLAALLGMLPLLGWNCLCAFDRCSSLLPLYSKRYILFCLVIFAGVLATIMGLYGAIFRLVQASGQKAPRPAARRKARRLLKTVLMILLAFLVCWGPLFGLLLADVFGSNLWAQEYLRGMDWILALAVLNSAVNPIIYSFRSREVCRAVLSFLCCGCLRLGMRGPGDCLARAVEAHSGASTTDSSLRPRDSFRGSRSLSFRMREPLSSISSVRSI
# [22] = biological target: T21, TP (Homo sapiens, UniProt P21731); experiment: GPCR Profiler; type: cell-based
# T21 construct: host or cells: Chem-1 cells with Gα15
# T21 sequence (P21731 whole entry): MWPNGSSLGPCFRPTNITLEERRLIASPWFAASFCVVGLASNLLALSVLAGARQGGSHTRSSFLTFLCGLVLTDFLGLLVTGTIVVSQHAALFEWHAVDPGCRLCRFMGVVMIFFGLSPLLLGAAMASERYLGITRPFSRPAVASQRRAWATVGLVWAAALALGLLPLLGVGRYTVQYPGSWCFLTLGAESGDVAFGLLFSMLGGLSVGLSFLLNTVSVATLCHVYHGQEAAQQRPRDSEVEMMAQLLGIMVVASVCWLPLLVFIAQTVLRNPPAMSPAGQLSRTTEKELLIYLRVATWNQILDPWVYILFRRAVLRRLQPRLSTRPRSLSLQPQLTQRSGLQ
# [23] = system: NCI-H82; experiment: Cell Titer-Glo viability, Lung cancer, small cell; type: cell-based
# Experimental: OGM2 kills wide variety of cancer cell types. Cell sensitivity can be classified in to Very Sensitive (LC50<2 μM), Sensitive (LC50=2 to 10 μM), Mildly Sensitive (LC50>10 μM), and Refractory (no killing at 10 μM). The listed established cell were incubated with OGM2 at 2 μM or 10 μM for 72 hours under standard cell culture conditions, and relative cell number was assessed using Cell Titer-Glo Luminescent Cell Viability Assay (Promega™) following the manufacturer's instructions. Luminescence was determined using a Cytation 5 reader and Gen5 software package (BioTek™).
# Cancer cells, which are very sensitive to killing by OGM2 (LCs <2 μM), with reported mRNA expression of GPR68 and the related proton sensing receptor GPR4. LC50's (concentrations causing 50% lethality) were determined using CellTiter-Glo (Promega™, G7570). Cells were plated in 12-well plates (CELLTREAT Scientific Products, 229112) in 1 ml of DMEM with high glucose, GlutaMAX, HEPES, or RPMI 1640 with Penicillin-Streptomycin (ThermoFisher™, 10564029, 11875119 and 15140122) and 10% FBS. Cells were incubated overnight at 37° C. in 5% CO2. Then 1 mL of fresh media was added with DMSO, OGM, or positive control (Erastin; APExBIO Technology, LLC, B1524) and cells incubated for 3 days. On the third day, all media was removed, cells were rinsed with 1×PBS, PBS was removed, and 200 μL of 1× Passive Lysis Buffer (Promega™, E1941) was added to each well. […]. Subsequently, 20 μL of lysate was added to 100 μL CellTiter-Glo™ reagent on a LUMITRAC 200 plate (Greiner™ bio-one, 82050-726). Plates were briefly spun down and read on a GloMax-Multi Detection System (Promega™).
# The cells listed in the tables above were incubated with OGM2 at 2 μM or 10 μM for 72 hours under standard cell culture conditions, and relative cell number was assessed using Cell Titer-Glo Luminescent Cell Viability Assay (Promega™) following the manufacturer's instructions. Luminescence was determined using a Cytation 5 reader and Gen5 software package (BioTek™). RNA expression of GPR68 and GPR4 in the corresponding cancer cell lines are listed, according to the publicly available The Human Protein Atlas version 22.0 and Ensembl version 103.38 (see proteinatlas.org). The consensus normalized expression value (“nTPM”=normalize transcript per million) was calculated as the maximum nTPM value for each gene in the two data sources.
smiles,measurement,setting,value
"CCc1ccc2c(c1)C1(NN=C(c3cccc4ccccc34)S1)C(=O)N2 (centres unmarked) [OGM1, 5-ethyl-5′-naphthalen-1-ylspiro[1H-indole-3,2′-3H-1,3,4-thiadiazole]-2-one]",remaining binding at 10 µM,[1],94%
same,remaining binding at 10 µM,[2],72%
same,remaining binding at 10 µM,[3],100%
same,remaining binding at 10 µM,[4],100%
same,remaining binding at 10 µM,[5],100%
same,remaining binding at 10 µM,[6],100%
same,remaining binding at 10 µM,[7],88%
same,remaining binding at 10 µM,[8],100%
same,remaining binding at 10 µM,[9],100%
same,remaining binding at 10 µM,[10],82%
same,remaining binding at 10 µM,[11],100%
same,remaining binding at 10 µM,[12],78%
same,remaining binding at 10 µM,[13],100%
same,remaining binding at 10 µM,[14],100%
same,remaining binding at 10 µM,[15],100%
same,remaining binding at 10 µM,[16],100%
same,remaining binding at 10 µM,[17],91%
same,Antagonism,[18]; 10 uM,−9.5
same,Agonism,[18]; 12.5 uM,−0.1
same,Antagonism,[19]; 10 uM,0.1
same,Agonism,[19]; 12.5 uM,0.6
same,Antagonism,[20]; 10 uM,1
same,Agonism,[20]; 12.5 uM,0.4
same,Antagonism,[21]; 10 uM,−5.2
same,Agonism,[21]; 12.5 uM,0.3
same,Antagonism,[22]; 10 uM,8.1
same,Agonism,[22]; 12.5 uM,0.2
CCc1ccc2c(c1)C1(NN=C(c3ccccc3)S1)C(=O)N2 (centres unmarked) [OGM2],Class,[23],Mildly
same,% Survival 2 μM OGM,[23]; 72 hours,102.6%
same,% Survival 10 μM OGM,[23]; 72 hours,59.9%
same,CC50,"[23]; Homo sapiens, NCI-H82, 72 hours, read-out: LC50 (the source's name)",> 10 µM
same,Class,[23]; Table 13,Low
